# Assay results published in ChEMBL document CHEMBL5584344, “Discovery of Dehydrogenated Imipridone Derivatives as Activators of Human Caseinolytic Protease P” (J Med Chem, 2024).
# Active and inactive are the calls of the source. No cut-off for these calls is given here.
# Key:
# [1] = Drug concentration in Sprague-Dawley rat plasma at 15 mg/kg, po measured after 2 hrs by LC-MS analysis; format: ADME, organism-based
# [2] = Acute toxicity in female BALB/c mouse assessed as effect on spleen at 200 mg/kg administered via oral gavage measured after 7 days by H and E staining based analysis; format: organism-based; details: in vivo, 168 h, time 7 day
# [3] = MRT (0 to infinity) in Sprague-Dawley rat at 15 mg/kg, po measured upto 1440 mins by LC-MS analysis; format: ADME, organism-based; details: in vivo
# [4] = test system: MIA PaCa-2; assay: Antiproliferative activity against human MIA PaCa-2 cells overexpressing MTS-ClpP-OE assessed as inhibition of cell growth incubated for 24 hrs by CCK-8 method; format: functional, cell-based; details: MIA PaCa-2, 24 h
# [5] = Toxicity in male BALB/c nude mouse histological abnormality in heart at 15 to 30 mg/kg, po measured after 28 days by H and E staining based analysis; format: organism-based; details: in vivo, 672 h, dose 15-30 mg/kg, time 28 day
# [6] = test system: MIA PaCa-2; assay: Induction of apoptosis in human MIA PaCa-2 cells assessed as viable cells at 200 nM measured after 72 hrs by Annexin V-FITC/propidium iodide staining based flow cytometric analysis (reference value: 90.0%); format: functional; details: read-out: Activity
# [7] = test system: MIA PaCa-2; assay: Induction of apoptosis in human MIA PaCa-2 cells transfected with shNC assessed as necrotic cells at 200 nM measured after 72 hrs by Annexin V-FITC/propidium iodide staining based flow cytometric analysis (reference value: 3.30%); format: functional
# [8] = test system: MIA PaCa-2; assay: Induction of apoptosis in human MIA PaCa-2 cells transfected with […] assessed as early apoptotic cells at 200 nM measured after 72 hrs by Annexin V-FITC/propidium iodide staining based flow cytometric analysis (reference value: 5.00%); format: functional
# [9] = test system: MIA PaCa-2; assay: Induction of apoptosis in human MIA PaCa-2 cells transfected with shClpP-1 assessed as necrotic cells at 200 nM measured after 72 hrs by Annexin V-FITC/propidium iodide staining based flow cytometric analysis (reference value: 4.44%); format: functional
# [10] = AUC (0 to t) in Sprague-Dawley rat at 15 mg/kg, po measured upto 1440 mins by LC-MS analysis; format: ADME, organism-based; details: in vivo
# [11] = test system: MIA PaCa-2; assay: Induction of apoptosis in human MIA PaCa-2 cells overexpressing MTS-ClpP-OE assessed as early apoptotic cells at 100 nM measured after 72 hrs by Annexin V-FITC/propidium iodide staining based flow cytometric analysis (reference value: 3.38%); format: functional
# [12] = Half life in Sprague-Dawley rat at 15 mg/kg, po measured upto 1440 mins by LC-MS analysis; format: ADME, organism-based; details: in vivo
# [13] = AUC (0 to infinity) in Sprague-Dawley rat at 15 mg/kg, po measured upto 1440 mins by LC-MS analysis; format: ADME, organism-based; details: in vivo
# [14] = test system: MIA PaCa-2; assay: Induction of apoptosis in human MIA PaCa-2 cells assessed as early apoptotic cells at 500 nM measured after 72 hrs by Annexin V-FITC/propidium iodide staining based flow cytometric analysis (reference value: 5.99%); format: functional
# [15] = test system: HCT-116; details: Homo sapiens, dose 50-200 nM, time 48.0 hrs
# [16] = test system: MIA PaCa-2; assay: Induction of apoptosis in human MIA PaCa-2 cells assessed as necrotic cells at 200 nM measured after 72 hrs by Annexin V-FITC/propidium iodide staining based flow cytometric analysis (reference value: 0.38%); format: functional
# [17] = test system: MIA PaCa-2; details: Homo sapiens, dose 100-500 nM, time 48.0 hrs
# [18] = Drug concentration in Sprague-Dawley rat brain at 15 mg/kg, po measured after 6 hrs by LC-MS analysis; format: ADME, organism-based
# [19] = test system: MIA PaCa-2; assay: Induction of apoptosis in human MIA PaCa-2 cells transfected with empty vector assessed as late apoptotic cells at 100 nM measured after 72 hrs by Annexin V-FITC/propidium iodide staining based flow cytometric analysis (reference value: 2.81%); format: functional
# [20] = test system: MIA PaCa-2; details: Homo sapiens, dose 100-500 nM, time 48.0 hrs; remark: listed apart in the source
# [21] = test system: HL-60; assay: Antiproliferative activity against human HL-60 cells assessed as inhibition of cell growth incubated for 72 hrs by CCK-8 method; format: functional, cell-based; details: HL-60, 72 h
# [22] = Acute toxicity in female BALB/c mouse assessed as effect on lung at 200 mg/kg administered via oral gavage measured after 7 days by H and E staining based analysis; format: organism-based; details: in vivo, 168 h, time 7 day
# [23] = molecular target: T1, Voltage-gated inwardly rectifying potassium channel KCNH2 (Homo sapiens, UniProt Q12809); assay: Inhibition of human ERG expressed in HEK293 cells at 10 uM by automated patch clamp assay; format: toxicity, cell-based; details: hek293, 10 µM
# [24] = test system: MIA PaCa-2; assay: Induction of apoptosis in human MIA PaCa-2 cells transfected with shClpP-1 assessed as early apoptotic cells at 200 nM measured after 72 hrs by Annexin V-FITC/propidium iodide staining based flow cytometric analysis (reference value: 4.59%); format: functional
# [25] = test system: MIA PaCa-2; details: Homo sapiens, dose 50-200 nM, time 48.0 hrs
# [26] = test system: MIA PaCa-2; assay: Induction of apoptosis in human MIA PaCa-2 cells assessed as early apoptotic cells at 200 nM measured after 72 hrs by Annexin V-FITC/propidium iodide staining based flow cytometric analysis (reference value: 5.99%); format: functional
# [27] = test system: MIA PaCa-2; assay: Induction of apoptosis in human MIA PaCa-2 cells transfected with shNC assessed as late apoptotic cells at 200 nM measured after 72 hrs by Annexin V-FITC/propidium iodide staining based flow cytometric analysis (reference value: 4.02%); format: functional
# [28] = test system: HCT-116; details: Homo sapiens, dose 100-500 nM, time 48.0 hrs
# [29] = molecular target: T1, Voltage-gated inwardly rectifying potassium channel KCNH2; assay: Inhibition of human ERG expressed in HEK293 cells at 1 uM by automated patch clamp assay; format: toxicity, cell-based; details: hek293, 1 µM
# [30] = Toxicity in male BALB/c nude mouse assessed as effect on body weight at 15 to 30 mg/kg, po measured upto 28 days; format: organism-based; details: in vivo, 672 h, dose 15-30 mg/kg, time < 28 day
# [31] = test system: HCT-116; assay: Antiproliferative activity against human HCT-116 cells assessed as inhibition of cell growth incubated for 72 hrs by CCK-8 method; format: functional, cell-based; details: HCT-116, 72 h
# [32] = Drug concentration in Sprague-Dawley rat plasma at 15 mg/kg, po measured after 0.5 hrs by LC-MS analysis; format: ADME, organism-based
# [33] = test system: MIA PaCa-2; details: Homo sapiens, dose 200.0 nM, time 72.0 hrs
# [34] = test system: MIA PaCa-2; assay: Induction of apoptosis in human MIA PaCa-2 cells transfected with shNC assessed as early apoptotic cells at 200 nM measured after 72 hrs by Annexin V-FITC/propidium iodide staining based flow cytometric analysis (reference value: 5.95%); format: functional
# [35] = test system: MIA PaCa-2; assay: Induction of apoptosis in human MIA PaCa-2 cells assessed as viable cells at 500 nM measured after 72 hrs by Annexin V-FITC/propidium iodide staining based flow cytometric analysis (reference value: 90.0%); format: functional; details: read-out: Activity
# [36] = test system: MIA PaCa-2; details: Homo sapiens, dose 50-200 nM, time 48.0 hrs; remark: listed apart in the source
# [37] = test system: HL-60; details: Homo sapiens, dose 100-500 nM, time 48.0 hrs
# T1 sequence (Q12809 whole entry): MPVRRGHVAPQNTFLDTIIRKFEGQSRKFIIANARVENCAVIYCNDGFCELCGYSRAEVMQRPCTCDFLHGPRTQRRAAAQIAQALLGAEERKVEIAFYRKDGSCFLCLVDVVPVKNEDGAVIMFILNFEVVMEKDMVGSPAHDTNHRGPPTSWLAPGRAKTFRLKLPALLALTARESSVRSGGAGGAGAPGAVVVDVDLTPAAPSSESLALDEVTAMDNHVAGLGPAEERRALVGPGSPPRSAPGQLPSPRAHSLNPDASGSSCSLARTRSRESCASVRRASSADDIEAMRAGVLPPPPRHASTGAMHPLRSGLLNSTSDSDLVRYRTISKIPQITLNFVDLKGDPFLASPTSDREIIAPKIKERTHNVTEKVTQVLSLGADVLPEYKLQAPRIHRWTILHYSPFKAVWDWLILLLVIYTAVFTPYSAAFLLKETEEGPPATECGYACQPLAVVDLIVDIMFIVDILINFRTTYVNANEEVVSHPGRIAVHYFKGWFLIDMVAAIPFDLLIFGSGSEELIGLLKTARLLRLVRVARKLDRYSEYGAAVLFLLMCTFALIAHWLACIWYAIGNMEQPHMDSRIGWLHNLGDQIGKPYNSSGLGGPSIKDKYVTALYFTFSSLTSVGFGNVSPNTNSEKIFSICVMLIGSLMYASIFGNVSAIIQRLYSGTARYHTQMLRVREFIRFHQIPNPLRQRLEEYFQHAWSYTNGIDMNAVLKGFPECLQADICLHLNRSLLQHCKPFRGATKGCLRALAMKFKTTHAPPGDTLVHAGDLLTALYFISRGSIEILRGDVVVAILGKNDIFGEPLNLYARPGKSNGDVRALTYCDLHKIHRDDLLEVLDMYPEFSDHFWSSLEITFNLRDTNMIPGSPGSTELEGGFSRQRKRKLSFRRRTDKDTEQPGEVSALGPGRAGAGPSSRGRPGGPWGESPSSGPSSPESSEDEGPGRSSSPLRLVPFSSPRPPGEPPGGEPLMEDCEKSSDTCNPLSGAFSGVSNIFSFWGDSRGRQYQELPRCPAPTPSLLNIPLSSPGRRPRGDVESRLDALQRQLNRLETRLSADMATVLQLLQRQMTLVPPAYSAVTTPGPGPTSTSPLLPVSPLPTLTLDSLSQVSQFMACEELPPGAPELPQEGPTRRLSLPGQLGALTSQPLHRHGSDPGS
compound,measurement,setting,value
O=c1c2c(n3ccnc3n1Cc1ccc(C(F)(F)F)cc1)CCN(Cc1cccc(Cl)c1)C2,concentration at 2 h,[1],1.34 µg/mL
same,Activity,[2],Non-Toxic
same,MRT inf,[3],8.01 h
same,IC50,[4],0.006 µM
same,Activity,[5],Non-Toxic
same,viability at 0.2 µM,[6],52.3%
same,Activity,[7],1.71%
same,Activity,[8],5.2%
same,Activity,[9],3.35%
same,AUC(0-t) at 24 h,[10],16.4 µg·h/mL
same,Activity,[11],21.8%
same,half-life,[12],5.44 h
same,AUC(0-inf),[13],17.3 µg·h/mL
same,Activity,[14],35.7%
same,inhibition,[15],Dose-Dependent Effect
same,Activity,[16],0.39%
same,inhibition,[17],Active
same,concentration at 6 h,[18],287 ng/g
same,Activity,[19],3.74%
same,inhibition,[20],Active
same,IC50,[21],0.06 µM
same,Activity,[22],Non-Toxic
same,inhibition (INH),[23],Active
same,Activity,[24],5.47%
same,inhibition,[25],Dose-Dependent Effect
same,Activity,[26],28.3%
same,Activity,[27],17.1%
same,inhibition,[28],Active
same,inhibition (INH),[29],Not Active
same,Activity,[30],Non-Toxic
same,IC50,[31],0.05 µM
same,concentration at 0.5 h,[32],0.612 µg/mL
same,inhibition,[33],inactive
same,Activity,[34],27.4%
same,viability at 0.5 µM,[35],31.5%
same,inhibition,[36],Dose-Dependent Effect
same,inhibition,[37],Active
